Test: Treatment-emergent adverse events (MedDRA, NCI-CTCAE v4.03), safety populations
Assay type: in vivo, human
Method: Overall safety in Parts A and B was assessed by tabulating TEAEs, coded using the Medical Dictionary for Regulatory Activities (MedDRA) version 22.1, and graded according to NCI-CTCAE v4.03 criteria. TEAEs were classified as related or unrelated to amcenestrant therapy based upon the local investigating physician’s clinical judgment. The safety population included all patients exposed to at least one dose of the study treatment. Results were analyzed using descriptive statistics.

O=C(O)c1ccc2c(c1)CCCC(c1ccc(Cl)cc1Cl)=C2c1ccc(O[C@H]2CCN(CCCF)C2)cc1 [amcenestrant, 6-(2,4-Dichlorophenyl)−5-[4-[(3S)−1-(3-fluoropropyl)pyrrolidin-3-yl]oxyphenyl]−8,9-dihydro-7H-benzo[7]annulene-2-carboxylic acid]
TEAE diarrhea (300 mg BID, 6 participants): 3 n
participants with at least 1 TEAE regardless of relationship (300 mg BID, 6 participants): 6 participants
TEAE leading to treatment discontinuation (Part A): No TEAE led to treatment discontinuation
treatment-related TEAE asthenia, patients (Part A (n = 16)): 18.8%
treatment-related TEAE constipation, patients (Part A (n = 16)): 18.8%
treatment-related TEAE decreased appetite, patients (Part A (n = 16)): 18.8%
treatment-related TEAE diarrhea, patients (Part A (n = 16)): 25.0%
treatment-related TEAE hot flush, patients (Part A (n = 16)): 31.3%
treatment-related TEAE nausea, patients (Part A (n = 16)): 25.0%
treatment-related TEAE night sweats, patients (Part A (n = 16)): 18.8%
Any TEAE, TEAEs, All grades (Part A, 20-600 mg QD (N = 16)): 16 (100) n (%)
Any TEAE, TEAEs, Grade 1 (Part A, 20-600 mg QD (N = 16)): 5 (31.3) n (%)
Any TEAE, TEAEs, Grade 2 (Part A, 20-600 mg QD (N = 16)): 7 (43.8) n (%)
Any TEAE, TEAEs, Grade ≥3 (Part A, 20-600 mg QD (N = 16)): 4 (25.0) n (%)
Any TEAE, Treatment-related TEAEs, All Grades (Part A, 20-600 mg QD (N = 16)): 13 (81.3) n (%)
Any TEAE, Treatment-related TEAEs, Grade 1 (Part A, 20-600 mg QD (N = 16)): 10 (62.5) n (%)
Any TEAE, Treatment-related TEAEs, Grade 2 (Part A, 20-600 mg QD (N = 16)): 3 (18.8) n (%)
Any TEAE, Treatment-related TEAEs, Grade ≥3 (Part A, 20-600 mg QD (N = 16)): 0 n (%)
Arthralgia, TEAEs, All grades (Part A, 20-600 mg QD (N = 16)): 5 (31.3) n (%)
Arthralgia, TEAEs, Grade 1 (Part A, 20-600 mg QD (N = 16)): 2 (12.5) n (%)
Arthralgia, TEAEs, Grade 2 (Part A, 20-600 mg QD (N = 16)): 3 (18.8) n (%)
Arthralgia, TEAEs, Grade ≥3 (Part A, 20-600 mg QD (N = 16)): 0 n (%)
Arthralgia, Treatment-related TEAEs, All Grades (Part A, 20-600 mg QD (N = 16)): 2 (12.5) n (%)
Arthralgia, Treatment-related TEAEs, Grade 1 (Part A, 20-600 mg QD (N = 16)): 1 (6.3) n (%)
Arthralgia, Treatment-related TEAEs, Grade 2 (Part A, 20-600 mg QD (N = 16)): 1 (6.3) n (%)
Arthralgia, Treatment-related TEAEs, Grade ≥3 (Part A, 20-600 mg QD (N = 16)): 0 n (%)
Asthenia, TEAEs, All grades (Part A, 20-600 mg QD (N = 16)): 4 (25.0) n (%)
Asthenia, TEAEs, Grade 1 (Part A, 20-600 mg QD (N = 16)): 2 (12.5) n (%)
Asthenia, TEAEs, Grade 2 (Part A, 20-600 mg QD (N = 16)): 2 (12.5) n (%)
Asthenia, TEAEs, Grade ≥3 (Part A, 20-600 mg QD (N = 16)): 0 n (%)
Asthenia, Treatment-related TEAEs, All Grades (Part A, 20-600 mg QD (N = 16)): 3 (18.8) n (%)
Asthenia, Treatment-related TEAEs, Grade 1 (Part A, 20-600 mg QD (N = 16)): 3 (18.8) n (%)
Asthenia, Treatment-related TEAEs, Grade 2 (Part A, 20-600 mg QD (N = 16)): 0 n (%)
Asthenia, Treatment-related TEAEs, Grade ≥3 (Part A, 20-600 mg QD (N = 16)): 0 n (%)
Back pain, TEAEs, All grades (Part A, 20-600 mg QD (N = 16)): 3 (18.8) n (%)
Back pain, TEAEs, Grade 1 (Part A, 20-600 mg QD (N = 16)): 2 (12.5) n (%)
Back pain, TEAEs, Grade 2 (Part A, 20-600 mg QD (N = 16)): 0 n (%)
Back pain, TEAEs, Grade ≥3 (Part A, 20-600 mg QD (N = 16)): 1 (6.3) n (%)
Back pain, Treatment-related TEAEs, All Grades (Part A, 20-600 mg QD (N = 16)): 1 (6.3) n (%)
Back pain, Treatment-related TEAEs, Grade 1 (Part A, 20-600 mg QD (N = 16)): 1 (6.3) n (%)
Back pain, Treatment-related TEAEs, Grade 2 (Part A, 20-600 mg QD (N = 16)): 0 n (%)
Back pain, Treatment-related TEAEs, Grade ≥3 (Part A, 20-600 mg QD (N = 16)): 0 n (%)
Constipation, TEAEs, All grades (Part A, 20-600 mg QD (N = 16)): 6 (37.5) n (%)
Constipation, TEAEs, Grade 1 (Part A, 20-600 mg QD (N = 16)): 5 (31.3) n (%)
Constipation, TEAEs, Grade 2 (Part A, 20-600 mg QD (N = 16)): 1 (6.3) n (%)
Constipation, TEAEs, Grade ≥3 (Part A, 20-600 mg QD (N = 16)): 0 n (%)
Constipation, Treatment-related TEAEs, All Grades (Part A, 20-600 mg QD (N = 16)): 3 (18.8) n (%)
Constipation, Treatment-related TEAEs, Grade 1 (Part A, 20-600 mg QD (N = 16)): 3 (18.8) n (%)
Constipation, Treatment-related TEAEs, Grade 2 (Part A, 20-600 mg QD (N = 16)): 0 n (%)
Constipation, Treatment-related TEAEs, Grade ≥3 (Part A, 20-600 mg QD (N = 16)): 0 n (%)
Decreased appetite, TEAEs, All grades (Part A, 20-600 mg QD (N = 16)): 6 (37.5) n (%)
Decreased appetite, TEAEs, Grade 1 (Part A, 20-600 mg QD (N = 16)): 6 (37.5) n (%)
Decreased appetite, TEAEs, Grade 2 (Part A, 20-600 mg QD (N = 16)): 0 n (%)
Decreased appetite, TEAEs, Grade ≥3 (Part A, 20-600 mg QD (N = 16)): 0 n (%)
Decreased appetite, Treatment-related TEAEs, All Grades (Part A, 20-600 mg QD (N = 16)): 3 (18.8) n (%)
Decreased appetite, Treatment-related TEAEs, Grade 1 (Part A, 20-600 mg QD (N = 16)): 3 (18.8) n (%)
Decreased appetite, Treatment-related TEAEs, Grade 2 (Part A, 20-600 mg QD (N = 16)): 0 n (%)
Decreased appetite, Treatment-related TEAEs, Grade ≥3 (Part A, 20-600 mg QD (N = 16)): 0 n (%)
Diarrhea, TEAEs, All grades (Part A, 20-600 mg QD (N = 16)): 6 (37.5) n (%)
Diarrhea, TEAEs, Grade 1 (Part A, 20-600 mg QD (N = 16)): 5 (31.3) n (%)
Diarrhea, TEAEs, Grade 2 (Part A, 20-600 mg QD (N = 16)): 1 (6.3) n (%)
Diarrhea, TEAEs, Grade ≥3 (Part A, 20-600 mg QD (N = 16)): 0 n (%)
Diarrhea, Treatment-related TEAEs, All Grades (Part A, 20-600 mg QD (N = 16)): 4 (25.0) n (%)
Diarrhea, Treatment-related TEAEs, Grade 1 (Part A, 20-600 mg QD (N = 16)): 3 (18.8) n (%)
Diarrhea, Treatment-related TEAEs, Grade 2 (Part A, 20-600 mg QD (N = 16)): 1 (6.3) n (%)
Diarrhea, Treatment-related TEAEs, Grade ≥3 (Part A, 20-600 mg QD (N = 16)): 0 n (%)
Dyspnea, TEAEs, All grades (Part A, 20-600 mg QD (N = 16)): 4 (25.0) n (%)
Dyspnea, TEAEs, Grade 1 (Part A, 20-600 mg QD (N = 16)): 2 (12.5) n (%)
Dyspnea, TEAEs, Grade 2 (Part A, 20-600 mg QD (N = 16)): 1 (6.3) n (%)
Dyspnea, TEAEs, Grade ≥3 (Part A, 20-600 mg QD (N = 16)): 1 (6.3) n (%)
Dyspnea, Treatment-related TEAEs, All Grades (Part A, 20-600 mg QD (N = 16)): 1 (6.3) n (%)
Dyspnea, Treatment-related TEAEs, Grade 1 (Part A, 20-600 mg QD (N = 16)): 1 (6.3) n (%)
Dyspnea, Treatment-related TEAEs, Grade 2 (Part A, 20-600 mg QD (N = 16)): 0 n (%)
Dyspnea, Treatment-related TEAEs, Grade ≥3 (Part A, 20-600 mg QD (N = 16)): 0 n (%)
Fatigue, TEAEs, All grades (Part A, 20-600 mg QD (N = 16)): 4 (25.0) n (%)
Fatigue, TEAEs, Grade 1 (Part A, 20-600 mg QD (N = 16)): 3 (18.8) n (%)
Fatigue, TEAEs, Grade 2 (Part A, 20-600 mg QD (N = 16)): 0 n (%)
Fatigue, TEAEs, Grade ≥3 (Part A, 20-600 mg QD (N = 16)): 1 (6.3) n (%)
Fatigue, Treatment-related TEAEs, All Grades (Part A, 20-600 mg QD (N = 16)): 2 (12.5) n (%)
Fatigue, Treatment-related TEAEs, Grade 1 (Part A, 20-600 mg QD (N = 16)): 2 (12.5) n (%)
Fatigue, Treatment-related TEAEs, Grade 2 (Part A, 20-600 mg QD (N = 16)): 0 n (%)
Fatigue, Treatment-related TEAEs, Grade ≥3 (Part A, 20-600 mg QD (N = 16)): 0 n (%)
Hot flush, TEAEs, All grades (Part A, 20-600 mg QD (N = 16)): 6 (37.5) n (%)
Hot flush, TEAEs, Grade 1 (Part A, 20-600 mg QD (N = 16)): 6 (37.5) n (%)
Hot flush, TEAEs, Grade 2 (Part A, 20-600 mg QD (N = 16)): 0 n (%)
Hot flush, TEAEs, Grade ≥3 (Part A, 20-600 mg QD (N = 16)): 0 n (%)
Hot flush, Treatment-related TEAEs, All Grades (Part A, 20-600 mg QD (N = 16)): 5 (31.3) n (%)
Hot flush, Treatment-related TEAEs, Grade 1 (Part A, 20-600 mg QD (N = 16)): 5 (31.3) n (%)
Hot flush, Treatment-related TEAEs, Grade 2 (Part A, 20-600 mg QD (N = 16)): 0 n (%)
Hot flush, Treatment-related TEAEs, Grade ≥3 (Part A, 20-600 mg QD (N = 16)): 0 n (%)
Hypoesthesia, TEAEs, All grades (Part A, 20-600 mg QD (N = 16)): 3 (18.8) n (%)
Hypoesthesia, TEAEs, Grade 1 (Part A, 20-600 mg QD (N = 16)): 3 (18.8) n (%)

— article PMC9284491 (Nature Communications, 2022)
